Assay [1] concerns the target 26S proteasome non-ATPase regulatory subunit 14 (Homo sapiens, UniProt O00487). Briefly: inhibition of proteasome subunit RPN11 – biochemical, fluorescence polarization, uHTS hits, confirmation (AID 602368). The assay is classed as functional.
Assay [2] has as its target 72 kDa type IV collagenase (Homo sapiens, UniProt P08253). Briefly: Dose Response validation of uHTS RPN11 inhibitor hits using a MMP-2 Fluorescence assay. The assay is classed as functional.
Assay [3] deals with Prothrombin (Bos taurus, UniProt P00735). The experiment in a line: thrombin inhibition, dose response, biochemical, fluorescence polarization, uHTS hits (AID 602369). The assay is classed as functional.
Assay [4] can be described thus: cytotoxicity toward DRD oncogenic fibroblasts, dose response, cell-based, non-viral oncogenic, luminescence (AID 1934). The note with it: Homo sapiens. The class given is functional.
Assay [5] in a line: Luminescence Cell-Based Dose Response HTS to Identify Inhibitors of 5'UTR Stem-Loop Driven Prion Protein mRNA Translation in H4 Neuroglioblastoma Cells. [Related pubchem assays: 1827 (Project Summary), 1813 (Primary HTS)]. The assay is classed as functional.
Assay [6] concerns BJ. The experiment in a line: cells. The assay is classed as functional, cell-based. The note with it: Homo sapiens.
For assay [7], the system named is BJ. Briefly: cytotoxicity toward BJ-TERT-LT-ST fibroblasts, dose response, cell-based, RAS-independent, luminescence (AID 1935).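 Also: BJ fibroblasts immortalized with TERT plus LT and ST oncogenes.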 The class given is functional. The note with it: Homo sapiens.
Assay [8] has as its system BJ. Briefly: cytotoxicity toward BJ-TERT fibroblasts, dose response, cell-based, RAS-independent, luminescence (AID 1933). The assay is classed as functional. The note with it: Homo sapiens.
The nature of assay [9]: inhibitors of SNCA 5'UTR-driven reporter translation, confirmation, H4 neuroglioma cells, luminescence (AID 1988). The class given is functional, cell-based.
The subject of assay [10] is BJ. Briefly: cytotoxicity toward Ras-transformed BJeLR fibroblasts, dose response, cell-based, alamar blue fluorescence, cherrypicked samples (AID 2631).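 Also: confirmatory dose-response assay in RAS-dependent BJ fibroblasts engineered with TERT, LT and ST, with cytotoxicity read by fluorescence.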 The class given is functional. The note with it: Homo sapiens. (In general: Resazurin is reduced to fluorescent resorufin, in cell work by metabolically active cells.)
The target in assay [11] is T1, Heat shock factor protein 1 (Mus musculus, UniProt P38532).
T1 sequence (P38532 whole entry): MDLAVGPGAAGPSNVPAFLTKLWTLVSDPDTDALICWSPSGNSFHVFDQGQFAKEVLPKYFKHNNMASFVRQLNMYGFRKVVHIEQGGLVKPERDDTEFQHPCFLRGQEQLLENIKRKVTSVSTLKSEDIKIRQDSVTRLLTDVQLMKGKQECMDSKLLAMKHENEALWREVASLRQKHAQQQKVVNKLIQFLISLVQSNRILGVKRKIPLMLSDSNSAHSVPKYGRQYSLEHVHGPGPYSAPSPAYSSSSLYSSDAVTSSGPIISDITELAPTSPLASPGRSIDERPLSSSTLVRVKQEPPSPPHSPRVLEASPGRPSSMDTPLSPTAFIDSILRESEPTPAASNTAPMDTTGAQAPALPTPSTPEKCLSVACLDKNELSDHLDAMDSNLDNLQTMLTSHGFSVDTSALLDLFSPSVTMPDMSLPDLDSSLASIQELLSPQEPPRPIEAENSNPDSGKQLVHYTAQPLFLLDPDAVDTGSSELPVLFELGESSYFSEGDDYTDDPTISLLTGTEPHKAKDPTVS
Briefly: HSF1 potentiators in luciferase reporter cells, confirmation, cell-based, NIH3T3, luminescence, dose retest (AID 435004).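 Also: stress induced by proteasome inhibitor MG132 added 30 min after compound; luciferase reporter driven by HSF1 response element in NIH3T3 cells; actives raise luminescence as potentiators of the MG132 stress response.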 The class given is functional. (In a reporter assay the amount or activity of a reporter protein is the signal.)

Assay [12] in a line: inhibitors of firefly luciferase expression or activity, dose response, H4 neuroglioma cells, luminescence (AID 1990). The assay is classed as functional, cell-based.
The target in assay [13] is T2, Sentrin-specific protease 8 (Homo sapiens, UniProt Q96LD8).
T2 sequence (Q96LD8 whole entry): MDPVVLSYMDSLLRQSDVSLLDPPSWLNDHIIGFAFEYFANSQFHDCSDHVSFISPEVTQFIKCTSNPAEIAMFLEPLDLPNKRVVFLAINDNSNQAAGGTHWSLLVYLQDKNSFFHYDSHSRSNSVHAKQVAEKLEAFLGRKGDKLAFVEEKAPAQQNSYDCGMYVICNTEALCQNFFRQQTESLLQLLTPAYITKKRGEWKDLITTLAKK
Briefly: SENP8 protease inhibitors, SAR follow-up, biochemical, luminescence (AID 504501). The class given is functional.

Assay [14] has as its target T3, Caspase-3 (Homo sapiens, UniProt P42574).
T3 sequence (P42574 whole entry): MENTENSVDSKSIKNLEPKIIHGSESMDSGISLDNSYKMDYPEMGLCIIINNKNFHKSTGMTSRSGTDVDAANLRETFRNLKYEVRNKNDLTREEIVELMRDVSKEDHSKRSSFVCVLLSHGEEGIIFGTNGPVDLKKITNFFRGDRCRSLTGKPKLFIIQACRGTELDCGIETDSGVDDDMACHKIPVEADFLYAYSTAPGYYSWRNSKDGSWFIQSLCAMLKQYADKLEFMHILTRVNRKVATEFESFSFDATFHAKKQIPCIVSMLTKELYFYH
The experiment in a line: SAR Analysis of small molecule inhibitors of Sentrin-specific proteases (SENPs) using a Caspase-3 Selectivity assay. [Related pubchem assays (depositor defined):AID2540, AID2599, AID434973, AID489001]. The class given is functional.

Assay [15] deals with T4, Sentrin-specific protease 7 (Homo sapiens, UniProt Q9BQF6).
T4 sequence (Q9BQF6 whole entry): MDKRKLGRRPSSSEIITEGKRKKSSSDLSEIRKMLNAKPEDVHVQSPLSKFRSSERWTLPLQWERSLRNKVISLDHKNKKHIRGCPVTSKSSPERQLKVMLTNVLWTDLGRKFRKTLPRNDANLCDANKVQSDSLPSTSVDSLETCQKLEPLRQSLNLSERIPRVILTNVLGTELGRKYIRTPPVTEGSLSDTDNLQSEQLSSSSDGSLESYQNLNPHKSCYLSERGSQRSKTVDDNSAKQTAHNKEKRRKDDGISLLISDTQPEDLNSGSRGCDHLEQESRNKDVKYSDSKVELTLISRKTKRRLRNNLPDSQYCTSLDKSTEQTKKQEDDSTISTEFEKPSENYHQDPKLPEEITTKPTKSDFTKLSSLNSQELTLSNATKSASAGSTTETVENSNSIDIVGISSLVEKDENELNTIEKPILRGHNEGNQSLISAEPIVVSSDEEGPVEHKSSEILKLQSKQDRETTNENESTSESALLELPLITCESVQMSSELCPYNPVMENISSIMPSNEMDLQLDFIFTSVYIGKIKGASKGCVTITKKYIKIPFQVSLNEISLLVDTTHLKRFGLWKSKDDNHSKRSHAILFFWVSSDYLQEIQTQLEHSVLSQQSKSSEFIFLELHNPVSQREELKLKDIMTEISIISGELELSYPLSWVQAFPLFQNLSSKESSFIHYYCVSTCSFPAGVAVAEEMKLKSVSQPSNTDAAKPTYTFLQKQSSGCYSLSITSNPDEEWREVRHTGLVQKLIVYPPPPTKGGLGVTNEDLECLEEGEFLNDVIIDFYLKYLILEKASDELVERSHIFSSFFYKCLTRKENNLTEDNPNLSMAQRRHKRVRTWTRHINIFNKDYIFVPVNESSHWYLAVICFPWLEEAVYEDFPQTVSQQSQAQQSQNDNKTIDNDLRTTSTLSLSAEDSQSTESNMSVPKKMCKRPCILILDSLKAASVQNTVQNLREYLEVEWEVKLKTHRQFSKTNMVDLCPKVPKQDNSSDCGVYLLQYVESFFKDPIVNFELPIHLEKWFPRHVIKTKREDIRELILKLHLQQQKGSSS
The experiment in a line: SENP7 protease inhibitors, SAR follow-up, biochemical, luminescence (AID 504497). The assay is classed as functional.

The target in assay [16] is T5, Sentrin-specific protease 6 (Homo sapiens, UniProt Q9GZR1).
T5 sequence (Q9GZR1 whole entry): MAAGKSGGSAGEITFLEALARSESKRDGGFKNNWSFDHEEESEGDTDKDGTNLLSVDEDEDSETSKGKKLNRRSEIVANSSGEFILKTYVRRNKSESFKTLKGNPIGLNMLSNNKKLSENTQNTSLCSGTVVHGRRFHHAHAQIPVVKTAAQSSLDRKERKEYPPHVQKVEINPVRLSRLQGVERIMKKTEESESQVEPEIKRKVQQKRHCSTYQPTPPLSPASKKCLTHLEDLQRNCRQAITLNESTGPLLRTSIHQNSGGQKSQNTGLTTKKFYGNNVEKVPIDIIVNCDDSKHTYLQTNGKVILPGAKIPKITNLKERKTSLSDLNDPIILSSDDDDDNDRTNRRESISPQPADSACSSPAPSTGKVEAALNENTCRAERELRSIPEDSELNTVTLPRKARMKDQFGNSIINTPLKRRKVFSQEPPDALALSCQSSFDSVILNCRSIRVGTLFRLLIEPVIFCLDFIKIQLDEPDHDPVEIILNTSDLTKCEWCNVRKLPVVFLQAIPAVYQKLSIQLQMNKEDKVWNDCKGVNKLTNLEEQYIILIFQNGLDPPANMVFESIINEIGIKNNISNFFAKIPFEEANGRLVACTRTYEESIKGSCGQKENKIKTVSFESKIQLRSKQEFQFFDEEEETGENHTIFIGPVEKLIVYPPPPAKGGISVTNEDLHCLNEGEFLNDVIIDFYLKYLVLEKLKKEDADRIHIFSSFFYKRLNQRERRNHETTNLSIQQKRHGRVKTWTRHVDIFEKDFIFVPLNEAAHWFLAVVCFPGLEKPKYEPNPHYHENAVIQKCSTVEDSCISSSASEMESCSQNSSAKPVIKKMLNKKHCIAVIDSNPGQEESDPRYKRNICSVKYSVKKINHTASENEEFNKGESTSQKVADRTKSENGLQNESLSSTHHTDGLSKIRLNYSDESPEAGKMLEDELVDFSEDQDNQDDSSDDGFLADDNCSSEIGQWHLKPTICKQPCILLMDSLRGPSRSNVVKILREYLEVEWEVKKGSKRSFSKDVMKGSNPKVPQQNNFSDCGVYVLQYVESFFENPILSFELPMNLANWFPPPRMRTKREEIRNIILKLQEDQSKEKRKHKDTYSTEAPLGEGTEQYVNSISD
Briefly: SAR Analysis of small molecule inhibitors of Sentrin-specific protease 6 (SENP6) using a Luminescent assay. [Related pubchem assays (depositor defined):AID2582, AID2599]. The class given is functional.

SMILES strings stand for the structures. Activity calls are given as the source filed them. Some results are limits rather than exact numbers.

26S proteasome non-ATPase regulatory subunit 14, sequence (O00487 whole entry): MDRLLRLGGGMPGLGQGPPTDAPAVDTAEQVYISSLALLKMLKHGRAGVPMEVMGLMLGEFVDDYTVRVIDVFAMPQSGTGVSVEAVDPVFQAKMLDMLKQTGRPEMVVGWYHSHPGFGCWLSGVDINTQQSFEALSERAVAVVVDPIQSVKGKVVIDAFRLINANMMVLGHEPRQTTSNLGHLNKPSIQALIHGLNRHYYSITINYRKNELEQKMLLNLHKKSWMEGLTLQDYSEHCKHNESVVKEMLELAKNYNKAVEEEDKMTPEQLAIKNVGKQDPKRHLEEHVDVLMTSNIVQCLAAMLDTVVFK
72 kDa type IV collagenase, sequence (P08253 whole entry): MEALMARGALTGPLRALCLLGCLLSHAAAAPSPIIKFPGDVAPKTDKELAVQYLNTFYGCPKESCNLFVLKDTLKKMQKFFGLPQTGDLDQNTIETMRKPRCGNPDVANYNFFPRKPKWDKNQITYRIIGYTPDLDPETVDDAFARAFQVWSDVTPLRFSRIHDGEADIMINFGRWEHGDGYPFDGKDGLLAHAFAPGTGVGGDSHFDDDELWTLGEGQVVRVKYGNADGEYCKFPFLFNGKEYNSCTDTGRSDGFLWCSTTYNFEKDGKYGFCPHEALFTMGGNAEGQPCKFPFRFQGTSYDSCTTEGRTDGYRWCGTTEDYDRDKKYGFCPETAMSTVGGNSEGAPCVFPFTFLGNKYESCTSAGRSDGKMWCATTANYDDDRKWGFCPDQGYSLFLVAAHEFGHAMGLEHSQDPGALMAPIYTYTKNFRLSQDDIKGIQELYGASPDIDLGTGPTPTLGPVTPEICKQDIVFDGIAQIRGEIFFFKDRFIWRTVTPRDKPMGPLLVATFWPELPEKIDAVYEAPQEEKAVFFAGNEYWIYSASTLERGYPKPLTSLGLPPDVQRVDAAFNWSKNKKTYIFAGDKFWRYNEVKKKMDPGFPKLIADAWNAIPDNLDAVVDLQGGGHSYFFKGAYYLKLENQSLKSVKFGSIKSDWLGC

With `Cc1ccc(C(=O)CSc2cc(C)nc(=O)[nH]2)cc1`, the IC50 (as a rule, the concentration at which inhibition is half-maximal) in assay [1] is 33.8 µM (active); in assay [2], 27.9 µM (active); in assay [3], 47.5 µM (active).

As to `O=C(NCc1ccccc1)c1c(Cl)nc(Cl)c(Cl)c1Cl`, the EC50 – broadly, the midpoint of the concentration-response curve – in assay [4] is 9.83 µM (active); in assay [5], > 120 µM (not active); in [6], 77.2 µM (inconclusive); in [7], 7.26 µM (inconclusive); in [8], 6.46 µM (active); in assay [9] it was > 120 µM (not active). Besides, the values for the EC50 in assay [10], in [11] and in [12] were 3.69 µM (active), 57.8 µM (active) and 10.3 µM (active), respectively.

Turning to `FC(F)(F)c1ccc(N/N=C/c2c[nH]c3ccccc23)cc1`, the IC50 in [13], in assay [14], in [15] and in [16] was > 99 µM (inactive) throughout.

In the case of `CCN(CC)c1ccc(/C=N/Nc2nc(N3CCCC3)nc(N3CCCC3)n2)cc1`, the IC50 in assay [13], in assay [14], in assay [15] and in assay [16] was > 99 µM (inactive) throughout.

Take `COc1ccc(CCC(=O)Nc2ccc(-c3noc(/C=C/c4ccccc4)n3)cc2)cc1`: the IC50 in assay [13], in [14], in [15] and in assay [16] was > 99 µM (inactive) in each case.

These data come from ChEMBL document CHEMBL1201862, “PubChem BioAssay data set” (2004).
